Results as given in ChEMBL document CHEMBL5724696, “Autophagy assay results for EUbOPEN Chemogenomics Library” (2024).
Where “and” joins values, the source holds several entries; their conditions need not be identical. Identical values can stand only once.

Key:
Format in all cases: functional, Homo sapiens
TERT-RPE1 = assay: (§1) Here: values are normalized to the negative (DMSO; defined as 0% autophagy induction) and positive (250nM Torin1; mTOR inhibitor; defined as maximal inducer of autophagy = 100%) control compounds and represented as % of autophagy induction. […] The impact of autophagy induction on cells is complex and depends on the affected target. As such, the magnitude of a phenotype may not be equally mirrored in the %-value of autophagy induction and vice versa. The dynamics of the induction may indicate the mode of activation: e.g. activation via phosphorylation or a signaling cascade may occur fast, while activation via transcription factors may take considerably longer. […] Of note, treatment concentrations may be sub-optimal for specific compounds, leading to false negative annotations.; settings: Culturing Media DMEM/F12 (1:1), 1 % Penicillin/Streptomycin, 10% Fetal bovin serum Add-On: No, Screening Media Control DMEM/F12 (1:1), Screening Media Samples DMEM/F12 (1:1)
U2OS [1] = assay: as §1; settings: Culturing Media DMEM, 1 % Penicillin/Streptomycin, 10% Fetal bovin serum Add-On: No, Screening Media Control DMEM, Screening Media Samples DMEM
U2OS [2] = assay: as §1; settings: Culturing Media DMEM, 1 % Penicillin/Streptomycin, 10% Fetal bovin serum Add-On: No, Screening Media Control DMEM, Screening Media Samples DMEM; remark: listed apart in the source
[3] = Compound Concentration 0.5 uM, Timepoint 12 hours, 12 h, 0.5 µM
[4] = Compound Concentration 0.5 uM, Timepoint 24 hours, 24 h, 0.5 µM
[5] = Compound Concentration 0.5 uM, Timepoint 36 hours, 36 h, 0.5 µM
[6] = Compound Concentration 0.5 uM, Timepoint 60 hours, 60 h, 0.5 µM
[7] = Compound Concentration 2 uM, Timepoint 12 hours, 12 h, 2 µM
[8] = Compound Concentration 2 uM, Timepoint 24 hours, 24 h, 2 µM
[9] = Compound Concentration 2 uM, Timepoint 36 hours, 36 h, 2 µM
[10] = Compound Concentration 2 uM, Timepoint 60 hours, 60 h, 2 µM
[11] = Compound Concentration 10 uM, Timepoint 12 hours, 12 h, 10 µM
[12] = Compound Concentration 10 uM, Timepoint 24 hours, 24 h, 10 µM
[13] = Compound Concentration 10 uM, Timepoint 36 hours, 36 h, 10 µM
[14] = Compound Concentration 0.5 uM, Timepoint 12 hours
[15] = Compound Concentration 0.5 uM, Timepoint 24 hours
[16] = Compound Concentration 0.5 uM, Timepoint 36 hours
[17] = Compound Concentration 0.5 uM, Timepoint 60 hours
[18] = Compound Concentration 2 uM, Timepoint 12 hours
[19] = Compound Concentration 2 uM, Timepoint 24 hours
[20] = Compound Concentration 2 uM, Timepoint 36 hours
[21] = Compound Concentration 2 uM, Timepoint 60 hours
[22] = Compound Concentration 10 uM, Timepoint 12 hours
[23] = Compound Concentration 10 uM, Timepoint 24 hours
[24] = Compound Concentration 10 uM, Timepoint 36 hours
[25] = Compound Concentration 10 uM, Timepoint 60 hours

SMILES | autophagy induction (TERT-RPE1; [3]) | autophagy induction (TERT-RPE1; [4]) | autophagy induction (TERT-RPE1; [5]) | autophagy induction (TERT-RPE1; [6]) | autophagy induction (TERT-RPE1; [7]) | autophagy induction (TERT-RPE1; [8]) | autophagy induction (TERT-RPE1; [9]) | autophagy induction (TERT-RPE1; [10]) | autophagy induction (TERT-RPE1; [11]) | autophagy induction (TERT-RPE1; [12]) | autophagy induction (TERT-RPE1; [13]) | autophagy induction (U2OS [1]; [14]) | autophagy induction (U2OS [1]; [15]) | autophagy induction (U2OS [1]; [16]) | autophagy induction (U2OS [1]; [17]) | autophagy induction (U2OS [1]; [18]) | autophagy induction (U2OS [1]; [19]) | autophagy induction (U2OS [1]; [20]) | autophagy induction (U2OS [1]; [21]) | autophagy induction (U2OS [1]; [22]) | also measured
CCCSc1nc(N[C@@H]2C[C@H]2c2ccc(F)c(F)c2)c2nnn([C@@H]3C[C@H](OCCO)[C@@H](O)[C@H]3O)c2n1 [TICAGRELOR] | -0.3223% and -0.8015% | 2.932% and -1.64% | 3.182% and -0.1292% | 6.614% and -2.465% | -2.164% and 3.738% | 2.13% and 2.219% | 3.83% and 3.863% | 10.3636% and 4.688% | 2.799% and 5.117% | 8.7588% and 7.492% | 16.5266% and 7.688% | -3.602% | -3.07% | -60.4394% | -2.316% | -5.583% | -3.174% | -60.5106% | -3.163% | -2.648% | autophagy induction (U2OS [1]; [23]): 1.759%; autophagy induction (U2OS [1]; [24]): -58.5177%; autophagy induction (U2OS [1]; [25]): -2.994%; autophagy induction (U2OS [2]; [14]): -9.844%; autophagy induction (U2OS [2]; [15]): -12.5107%; autophagy induction (U2OS [2]; [16]): -15.2375%; autophagy induction (U2OS [2]; [17]): -18.2861%; autophagy induction (U2OS [2]; [18]): 2.324%; autophagy induction (U2OS [2]; [19]): -7.302%; autophagy induction (U2OS [2]; [20]): -3.06%; autophagy induction (U2OS [2]; [21]): -7.4162%; autophagy induction (U2OS [2]; [22]): -4.369%; autophagy induction (U2OS [2]; [23]): -2.6496%; autophagy induction (U2OS [2]; [24]): -0.7195%; autophagy induction (U2OS [2]; [25]): 1.979%
O=C(O)CC1CCC2(CC1)CCN(c1cc(OC(F)(F)F)ccc1Cl)CC2 | 1.5088% and -4.208% | -1.371% and -2.379% | -4.319% and -4.033% | -5.803% and -6.663% | 7.834% and -3.775% | 2.312% and -6.096% | -2.505% and -8.733% | -5.7463% and -9.633% | 5.943% and -1.866% | 5.6585% and -2.656% | 3.294% and -3.964% | 6.893% | 1.231% | -59.5433% | -1.659% | 4.528% | 2.023% | -58.8057% | 0.09301% | 1.476% | autophagy induction (TERT-RPE1; Compound Concentration 10 uM, Timepoint 60 hours, 60 h, 10 µM): -1.174% and -1.531%; autophagy induction (U2OS [1]; [23]): -1.647%; autophagy induction (U2OS [1]; [24]): -59.8779%; autophagy induction (U2OS [1]; [25]): -1.029%; autophagy induction (U2OS [2]; [14]): -7.253%; autophagy induction (U2OS [2]; [15]): -0.0788%; autophagy induction (U2OS [2]; [16]): -0.8569%; autophagy induction (U2OS [2]; [17]): -4.709%; autophagy induction (U2OS [2]; [18]): -6.392%; autophagy induction (U2OS [2]; [19]): -5.775%; autophagy induction (U2OS [2]; [20]): -5.315%; autophagy induction (U2OS [2]; [21]): -3.59%; autophagy induction (U2OS [2]; [22]): -7.404%; autophagy induction (U2OS [2]; [23]): -7.084%; autophagy induction (U2OS [2]; [24]): -0.9405%; autophagy induction (U2OS [2]; [25]): -11.9422%
